According to ChEMBL document CHEMBL3352668, “Synthesis and antibacterial evaluation of new, unsymmetrical triaryl bisamidine compounds” (Bioorg Med Chem Lett, 2014):
In brackets after ≈: the same amount, converted by molar mass.

Key:
Escherichia coli [1] = test: Antimicrobial activity against TolC+ Escherichia coli 700 by CLSI method; format: functional
Bacillus anthracis = test: Antimicrobial activity against Bacillus anthracis Sterne by CLSI method; format: functional
Pseudomonas aeruginosa [2] = test: Antimicrobial activity against mexAB-oprM deficient Pseudomonas aeruginosa PAO1 harboring by CLSI method; format: functional
Escherichia coli [3] = test: Antimicrobial activity against TolC-deficient Escherichia coli by CLSI method; format: functional; details: Escherichia coli; read-out: MIC
Klebsiella pneumoniae = test: Antimicrobial activity against Klebsiella pneumoniae 13882 by CLSI method; format: functional
Enterococcus faecalis = test: Antimicrobial activity against vancomycin-resistant Enterococcus faecalis ATCC 51575 by CLSI method; format: functional
HeLa = test: (§1) Cytotoxicity against human HeLa cells by MTS assay; format: cell-based; details: hela
Pseudomonas aeruginosa [4] = test: Antimicrobial activity against Pseudomonas aeruginosa PAO1 by CLSI method; format: functional
Bacillus subtilis = test: Antimicrobial activity against Bacillus subtilis BD54 by CLSI method; format: functional
Staphylococcus aureus = test: Antimicrobial activity against methicillin-resistant Staphylococcus aureus 1094 by CLSI method; format: functional
[5] = as §1; format: cell-based; details: HeLa cells
[6] = Escherichia coli, 700, read-out: MIC
[7] = Bacillus anthracis, Sterne, read-out: MIC
[8] = Klebsiella pneumoniae, 13882, read-out: MIC
[9] = Enterococcus faecalis, ATCC 51575, read-out: MIC
[10] = Pseudomonas aeruginosa, PAO1, read-out: MIC
[11] = Bacillus subtilis, BD54, read-out: MIC
[12] = Staphylococcus aureus, 1094, read-out: MIC

Row | SMILES | MIC (Escherichia coli [1]) [µg/mL] | MIC (Bacillus anthracis) [µg/mL] | MIC (Pseudomonas aeruginosa [2]) [µg/mL] | MIC (Escherichia coli [3]) [µg/mL] | MIC (Klebsiella pneumoniae) [µg/mL] | MIC (Enterococcus faecalis) [µg/mL] | CC50 (HeLa) [µg/mL] | MIC (Pseudomonas aeruginosa [4]) [µg/mL] | MIC (Bacillus subtilis) [µg/mL] | MIC (Staphylococcus aureus) [µg/mL] | MIC (Escherichia coli [1]; [6]) [µg/mL] | MIC (Bacillus anthracis; [7]) [µg/mL] | MIC (Klebsiella pneumoniae; [8]) [µg/mL] | MIC (Enterococcus faecalis; [9]) [µg/mL] | MIC (Pseudomonas aeruginosa [4]; [10]) [µg/mL] | MIC (Bacillus subtilis; [11]) [µg/mL] | MIC (Staphylococcus aureus; [12]) [µg/mL] | CC50 [5] [µg/mL]
1 | CC1CNC(c2ccc3cc(-c4ccc(-c5cc6ccc(C7=NC(C)CN7)cc6o5)cc4)[nH]c3c2)=N1 (stereo in doubt; P6b) | 1.09 (≈ 2.3 µM) | 0.63 (≈ 1.33 µM) | 80 (≈ 169 µM) | 0.63 (≈ 1.33 µM) | 5 (≈ 10.6 µM) | 0.63 (≈ 1.33 µM) | 7.6 (≈ 16 µM) | 80 (≈ 169 µM) | 0.35 (≈ 0.739 µM) | 0.55 (≈ 1.16 µM) | – | – | – | – | – | – | – | –
2 | c1cc2cc(-c3ccc(-c4cc5ccc(C6=NCCCN6)cc5o4)cn3)[nH]c2cc1C1=NCCCN1 | – | – | – | 0.16 (≈ 0.337 µM) | – | – | 15.6 (≈ 32.9 µM) | – | – | – | 1.25 (≈ 2.63 µM) | 0.16 (≈ 0.337 µM) | 1.56 (≈ 3.29 µM) | 0.39 (≈ 0.822 µM) | 1.25 (≈ 2.63 µM) | 0.08 (≈ 0.169 µM) | 0.31 (≈ 0.653 µM) | –
3 | c1cc2cc(-c3ccc(-c4cn5cc(C6=NCCCN6)ccc5n4)cc3)[nH]c2cc1C1=NCCCN1 | – | – | 5 (≈ 10.6 µM) | 0.31 (≈ 0.655 µM) | – | – | 19.7 (≈ 41.6 µM) | – | – | – | 5 (≈ 10.6 µM) | 1.25 (≈ 2.64 µM) | 5 (≈ 10.6 µM) | 0.63 (≈ 1.33 µM) | 5 (≈ 10.6 µM) | 0.08 (≈ 0.169 µM) | 0.63 (≈ 1.33 µM) | –
4 | c1cc2cc(-c3ccc(-c4cn5ccc(C6=NCCCN6)cc5n4)cc3)[nH]c2cc1C1=NCCCN1 | – | – | > 80 | 0.31 (≈ 0.655 µM) | – | – | 20.9 (≈ 44.1 µM) | – | – | – | 2.5 (≈ 5.28 µM) | 1.25 (≈ 2.64 µM) | 5 (≈ 10.6 µM) | 1.25 (≈ 2.64 µM) | 40 (≈ 84.5 µM) | 0.16 (≈ 0.338 µM) | 2.5 (≈ 5.28 µM) | –
5 | c1cc2cc(-c3ccc(-c4cc5ccc(C6=NCCN6)cc5[nH]4)cc3)[nH]c2cc1C1=NCCN1 | – | – | 2.5 (≈ 5.62 µM) | 0.16 (≈ 0.36 µM) | – | – | 32.5 (≈ 73.1 µM) | – | – | – | 1.25 (≈ 2.81 µM) | 0.31 (≈ 0.697 µM) | 0.24 (≈ 0.54 µM) | 0.16 (≈ 0.36 µM) | 7.5 (≈ 16.9 µM) | 0.12 (≈ 0.27 µM) | 0.16 (≈ 0.36 µM) | –
6 | c1cc2cc(-c3ccc(-c4cc5ccc(C6=NCCCN6)cc5o4)cc3)[nH]c2cc1C1=NCCCN1 | – | – | 0.47 (≈ 0.992 µM) | 0.16 (≈ 0.338 µM) | – | – | – | – | – | – | 0.63 (≈ 1.33 µM) | 5 (≈ 10.6 µM) | 0.55 (≈ 1.16 µM) | 0.39 (≈ 0.824 µM) | 0.63 (≈ 1.33 µM) | 0.14 (≈ 0.296 µM) | 0.1 (≈ 0.211 µM) | 26 (≈ 54.9 µM)
